Test results from article PMC7782793, “Hydroxamic acid-modified peptide microarrays for profiling isozyme-selective interactions and inhibition of histone deacetylases” (Nature Communications, 2021).
Several values for one entry are separate records, joined by “and”; a condition that tells them apart may be missing. Identical values can stand only once. Marks after values point to notes of the source that are not given here. Non-standard residues stand in square brackets, D forms with d. Residues, ends and D or L forms follow the SMILES beside them. *: point of attachment. Asu = N[C@@H](CCCCCC(=O)O)C(=O)O; NHOH = ON*

Experiments:
[1] = molecular target: T1, HDAC3/NCoR2 (Homo sapiens, UniProt O15379); experiment: Recombinant HDAC µSPOT microarray binding assay;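 also: peptide spots on cellulose slides incubated with rising HDAC enzyme concentrations, imaged together, four-parameter logistic fit, EC50 is enzyme concentration giving half-maximal binding signal, two experiments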
T1 construct: HDAC3/NCoR2 (full length, C-terminal His tag, NCoR2 N-terminal GST tag); purchased BPS Bioscience 50003

[2] = molecular target: T1, HDAC3/NCoR2; experiment: HDAC inhibition assay (fluorogenic, Ac-Leu-Gly-Lys(Ac)-AMC); assay type: biochemical; conditions: for HDAC3 dose-response data (relative enzyme activity), Fig. 6 + S. Fig. 10: duplicate columns
[3] = molecular target: T2, HDAC8 (Homo sapiens, UniProt Q9BY41); experiment: HDAC inhibition assay (fluorogenic, Ac-Leu-Gly-Lys(Tfa)-AMC); assay type: biochemical; conditions: for HDAC8 dose-response data (relative enzyme activity, replicate values), Fig. 6 + S. Fig. 10: two replicate columns per inhibitor; for HDAC8 dose-response data (relative enzyme activity), Fig. 6 + S. Fig. 10: duplicate columns
T2 construct: HDAC8 (full length, C-terminal His tag, BPS Bioscience, cat. #: 50008); purchased BPS Bioscience 50008
T2 sequence (Q9BY41 1-377): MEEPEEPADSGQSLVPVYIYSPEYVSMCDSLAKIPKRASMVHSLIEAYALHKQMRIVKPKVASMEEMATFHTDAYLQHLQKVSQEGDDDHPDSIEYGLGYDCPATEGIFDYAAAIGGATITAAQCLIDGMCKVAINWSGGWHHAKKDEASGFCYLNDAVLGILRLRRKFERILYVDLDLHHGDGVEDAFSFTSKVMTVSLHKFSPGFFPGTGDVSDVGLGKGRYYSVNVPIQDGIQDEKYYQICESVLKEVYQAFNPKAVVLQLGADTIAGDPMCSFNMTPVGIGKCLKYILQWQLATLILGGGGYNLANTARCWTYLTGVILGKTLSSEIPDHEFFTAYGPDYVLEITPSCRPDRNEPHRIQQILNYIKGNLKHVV

[4] = molecular target: T3, HDAC6 (Homo sapiens, UniProt Q9UBN7); experiment: HDAC inhibition assay (fluorogenic, Ac-Leu-Gly-Lys(Ac)-AMC); assay type: biochemical; conditions: HDAC6, replicates
T3 construct: HDAC6 (full length, BPS Bioscience, cat. #: 50056); purchased BPS Bioscience 50056
T3 sequence (Q9UBN7 1-1215): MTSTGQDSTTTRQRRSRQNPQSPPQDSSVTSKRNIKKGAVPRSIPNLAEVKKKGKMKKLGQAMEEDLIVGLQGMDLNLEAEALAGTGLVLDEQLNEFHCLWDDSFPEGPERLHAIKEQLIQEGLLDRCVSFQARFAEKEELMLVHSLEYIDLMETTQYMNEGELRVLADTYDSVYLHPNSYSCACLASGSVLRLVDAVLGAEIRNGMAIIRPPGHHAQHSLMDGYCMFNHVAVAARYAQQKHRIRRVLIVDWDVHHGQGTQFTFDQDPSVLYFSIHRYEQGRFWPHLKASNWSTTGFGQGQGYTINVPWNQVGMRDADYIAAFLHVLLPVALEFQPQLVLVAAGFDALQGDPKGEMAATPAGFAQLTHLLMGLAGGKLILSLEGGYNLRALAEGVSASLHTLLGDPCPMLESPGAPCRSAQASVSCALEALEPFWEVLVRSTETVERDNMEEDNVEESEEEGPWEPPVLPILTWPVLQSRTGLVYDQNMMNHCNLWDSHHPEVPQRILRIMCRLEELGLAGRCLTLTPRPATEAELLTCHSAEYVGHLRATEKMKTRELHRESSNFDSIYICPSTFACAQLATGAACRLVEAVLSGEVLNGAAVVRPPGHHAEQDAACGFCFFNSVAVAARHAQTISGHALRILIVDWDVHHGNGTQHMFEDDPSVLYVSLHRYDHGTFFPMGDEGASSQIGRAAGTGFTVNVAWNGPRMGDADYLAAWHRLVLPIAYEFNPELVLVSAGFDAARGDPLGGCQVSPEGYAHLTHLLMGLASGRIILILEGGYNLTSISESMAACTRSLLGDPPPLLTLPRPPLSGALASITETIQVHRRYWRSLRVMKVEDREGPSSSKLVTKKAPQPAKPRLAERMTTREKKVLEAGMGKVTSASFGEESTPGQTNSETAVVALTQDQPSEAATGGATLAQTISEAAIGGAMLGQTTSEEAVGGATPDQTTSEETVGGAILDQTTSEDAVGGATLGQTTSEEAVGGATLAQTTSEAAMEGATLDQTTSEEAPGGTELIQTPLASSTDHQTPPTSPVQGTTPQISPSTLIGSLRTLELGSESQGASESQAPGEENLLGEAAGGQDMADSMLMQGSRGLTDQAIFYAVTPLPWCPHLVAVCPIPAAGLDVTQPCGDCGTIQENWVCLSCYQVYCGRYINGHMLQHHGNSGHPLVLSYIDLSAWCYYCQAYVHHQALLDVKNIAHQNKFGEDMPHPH

[5] = molecular target: T4, HDAC1 (Homo sapiens, UniProt Q13547); experiment: as above; assay type: biochemical; conditions: for HDAC1 dose-response data (relative enzyme activity), Fig. 6 + S. Fig. 10: duplicate columns
T4 construct: HDAC1 (full length, C-terminal His tag, C-terminal FLAG tag, BPS Bioscience, cat. #: 50051); FLAG (C); purchased BPS Bioscience 50051

[6] = molecular target: T5, HDAC2 (Homo sapiens, UniProt Q92769); experiment: as above; assay type: biochemical; conditions: for HDAC2 dose-response data (relative enzyme activity), Fig. 6 + S. Fig. 10: duplicate columns
T5 construct: HDAC2 (full length, C-terminal His tag, BPS Bioscience, cat. #: 50002); purchased BPS Bioscience 50002

[7] = molecular target: T4, HDAC1; experiment: Recombinant HDAC µSPOT microarray binding assay
[8] = molecular target: T5, HDAC2; experiment: Recombinant HDAC µSPOT microarray binding assay
[9] = system: HDACs 1‒3 and 8; experiment: HDAC inhibition assays, statements across several class I isozymes; assay type: biochemical, human; conditions: resynthesized peptides, from Ki
[10] = log[inhibitor(M)] -10,5850266520292*, whole line marked with asterisks

T4 sequence (Q13547 whole entry): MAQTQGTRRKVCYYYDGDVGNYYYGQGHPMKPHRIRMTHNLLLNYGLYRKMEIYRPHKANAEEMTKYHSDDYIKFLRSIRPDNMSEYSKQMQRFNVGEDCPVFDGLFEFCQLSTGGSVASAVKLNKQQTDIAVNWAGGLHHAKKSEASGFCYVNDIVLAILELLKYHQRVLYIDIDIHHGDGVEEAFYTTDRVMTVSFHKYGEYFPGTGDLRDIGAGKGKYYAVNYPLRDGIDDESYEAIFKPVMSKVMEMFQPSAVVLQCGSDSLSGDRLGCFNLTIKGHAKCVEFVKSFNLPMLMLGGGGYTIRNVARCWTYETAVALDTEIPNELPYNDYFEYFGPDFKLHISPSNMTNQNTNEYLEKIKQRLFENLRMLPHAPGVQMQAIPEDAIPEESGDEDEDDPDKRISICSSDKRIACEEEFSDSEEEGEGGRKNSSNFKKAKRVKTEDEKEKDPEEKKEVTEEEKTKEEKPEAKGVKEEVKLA
T5 sequence (Q92769 whole entry): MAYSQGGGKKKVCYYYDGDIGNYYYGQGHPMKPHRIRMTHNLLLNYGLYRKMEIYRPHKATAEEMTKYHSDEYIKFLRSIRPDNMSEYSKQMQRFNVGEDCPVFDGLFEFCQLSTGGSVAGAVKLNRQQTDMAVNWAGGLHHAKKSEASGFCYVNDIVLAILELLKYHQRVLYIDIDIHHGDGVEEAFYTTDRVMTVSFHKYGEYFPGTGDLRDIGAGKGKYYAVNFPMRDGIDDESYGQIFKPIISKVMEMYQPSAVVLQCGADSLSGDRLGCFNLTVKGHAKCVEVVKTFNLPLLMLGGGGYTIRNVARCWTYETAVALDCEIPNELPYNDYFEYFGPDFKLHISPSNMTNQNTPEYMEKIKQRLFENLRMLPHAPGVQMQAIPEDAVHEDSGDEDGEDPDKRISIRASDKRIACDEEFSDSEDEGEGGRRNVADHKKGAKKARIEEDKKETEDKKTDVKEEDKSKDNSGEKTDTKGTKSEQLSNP
T1 sequence (O15379 whole entry): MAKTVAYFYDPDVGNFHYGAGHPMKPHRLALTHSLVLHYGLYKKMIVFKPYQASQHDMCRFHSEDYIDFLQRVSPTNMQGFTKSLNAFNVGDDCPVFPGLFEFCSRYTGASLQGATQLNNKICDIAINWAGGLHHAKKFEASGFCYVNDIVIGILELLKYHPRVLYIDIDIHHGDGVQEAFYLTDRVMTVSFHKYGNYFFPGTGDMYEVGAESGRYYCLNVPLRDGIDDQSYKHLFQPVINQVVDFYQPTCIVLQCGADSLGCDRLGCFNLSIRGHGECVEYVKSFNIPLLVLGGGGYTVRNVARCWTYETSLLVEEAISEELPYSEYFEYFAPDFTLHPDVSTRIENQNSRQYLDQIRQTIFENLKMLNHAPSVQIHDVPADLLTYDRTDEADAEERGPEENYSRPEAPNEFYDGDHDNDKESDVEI
T1 sequence (Q9Y618 389-480 partner limits assumed): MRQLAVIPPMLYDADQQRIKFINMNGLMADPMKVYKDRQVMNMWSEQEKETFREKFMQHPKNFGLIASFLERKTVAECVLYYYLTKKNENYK

CC(=O)N[C@@H](CC(C)C)C(=O)NCC(=O)N[C@@H](CCCCN)C(=O)NCC(=O)NCC(=O)N[C@@H](C)C(=O)N[C@@H](CCCCCC(=O)NO)C(=O)N[C@@H](CCCNC(=N)N)C(=O)N[C@@H](Cc1c[nH]cn1)C(=O)N[C@@H](CCCNC(=N)N)C(=O)N[C@@H](CCCCN)C(=O)N[C@H](C(=O)N[C@@H](CC(C)C)C(=O)N[C@@H](CCCNC(=N)N)C(=O)N[C@@H](CC(=O)O)C(=O)N[C@@H](CC(N)=O)C(=O)N[C@@H](Cc1c[nH]c2ccccc12)C(N)=O)C(C)C [16a] (Ac-LGKGGA[Asu](NHOH)RHRKVLRDNW-NH2)
EC50 [1]: 3.24 nM
Ki [2]: 2.22 ± 0.02 nM
HDAC3 dose-response data (relative enzyme activity), Fig. 6 + S. Fig. 10 ([2]; log[inhibitor(M)] -4.30103): 0.4175 and 0.3694
HDAC3 dose-response data (relative enzyme activity), Fig. 6 + S. Fig. 10 ([2]; log[inhibitor(M)] -5): 1.3048 and 1.953
HDAC3 dose-response data (relative enzyme activity), Fig. 6 + S. Fig. 10 ([2]; log[inhibitor(M)] -5.69897): 3.445 and 2.8496
HDAC3 dose-response data (relative enzyme activity), Fig. 6 + S. Fig. 10 ([2]; log[inhibitor(M)] -6.39794): 11.0647 and 10.1847
HDAC3 dose-response data (relative enzyme activity), Fig. 6 + S. Fig. 10 ([2]; log[inhibitor(M)] -7.09691): 22.9645 and 23.8522
HDAC3 dose-response data (relative enzyme activity), Fig. 6 + S. Fig. 10 ([2]; log[inhibitor(M)] -7.79588): 45.6159 and 50.9763
HDAC3 dose-response data (relative enzyme activity), Fig. 6 + S. Fig. 10 ([2]; log[inhibitor(M)] -8.49485): 73.3299 and 73.9314
HDAC3 dose-response data (relative enzyme activity), Fig. 6 + S. Fig. 10 ([2]; log[inhibitor(M)] -9.19382): 93.2672 and 99.1029
HDAC3 dose-response data (relative enzyme activity), Fig. 6 + S. Fig. 10 ([2]; log[inhibitor(M)] -9.89279): 96.9207 and 113.14
HDAC3 dose-response data (relative enzyme activity), Fig. 6 + S. Fig. 10 [2, 10]: 99,4259* and 104,433*
Ki [3]: 3960 ± 30 nM
HDAC8 dose-response data (relative enzyme activity, replicate values), Fig. 6 + S. Fig. 10 ([3]; Inhibitor conc [M] -8.49485 (log)): 105.989 and 103.599
HDAC8 dose-response data (relative enzyme activity, replicate values), Fig. 6 + S. Fig. 10 ([3]; Inhibitor conc [M] -9.19382 (log)): 103.027 and 101.95
HDAC8 dose-response data (relative enzyme activity, replicate values), Fig. 6 + S. Fig. 10 ([3]; Inhibitor conc [M] given as -7.09691 (log)): 102.108 and 99.2954
HDAC8 dose-response data (relative enzyme activity, replicate values), Fig. 6 + S. Fig. 10 ([3]; Inhibitor conc [M] given as -7.79588 (log)): 104.22 and 100.942
HDAC8 dose-response data (relative enzyme activity, replicate values), Fig. 6 + S. Fig. 10 ([3]; Inhibitor conc [M] given as -9.89279 (log)): 101.805 and 102.182
HDAC8 dose-response data (relative enzyme activity, replicate values), Fig. 6 + S. Fig. 10 ([3]; Inhibitor conc [M] given as -10.585 (log)): 101,084* and 101,486*
HDAC8 dose-response data (relative enzyme activity), Fig. 6 + S. Fig. 10 ([3]; Inhibitor conc [M] -4.30103): 9.568 and 11.2045
HDAC8 dose-response data (relative enzyme activity), Fig. 6 + S. Fig. 10 ([3]; Inhibitor conc [M] -5): 36.7683 and 38.5294
HDAC8 dose-response data (relative enzyme activity), Fig. 6 + S. Fig. 10 ([3]; Inhibitor conc [M] -5.69897): 76.0846 and 76.9796
HDAC8 dose-response data (relative enzyme activity), Fig. 6 + S. Fig. 10 ([3]; Inhibitor conc [M] -6.39794): 95.2833 and 94.1446
residual enzymatic activity relative to control wells ([4]; log[inhibitor(M)] -4.30103): 4.09 and 0.65
residual enzymatic activity relative to control wells ([4]; log[inhibitor(M)] -5): 6.22 and 1.17
residual enzymatic activity relative to control wells ([4]; log[inhibitor(M)] -5.69897): 11.26 and 3.12
residual enzymatic activity relative to control wells ([4]; log[inhibitor(M)] -6.39794): 21.64 and 10.97
residual enzymatic activity relative to control wells ([4]; log[inhibitor(M)] -7.09691): 46.18 and 32.55
residual enzymatic activity relative to control wells ([4]; log[inhibitor(M)] -7.79588): 74.92 and 62.21
residual enzymatic activity relative to control wells ([4]; log[inhibitor(M)] -8.49485): 91.41 and 82.42
residual enzymatic activity relative to control wells ([4]; log[inhibitor(M)] -9.19382): 100.82 and 93.56
residual enzymatic activity relative to control wells ([4]; log[inhibitor(M)] -9.89279): 98.48 and 94.75
residual enzymatic activity relative to control wells ([4]; log[inhibitor(M)] -10.585): 101,7* and 98,09*
Ki [5]: 15.7 ± 0.2 nM
HDAC1 dose-response data (relative enzyme activity), Fig. 6 + S. Fig. 10 ([5]; log[inhibitor(M)] -6.39794): 20.1917 and 18.7736
HDAC1 dose-response data (relative enzyme activity), Fig. 6 + S. Fig. 10 ([5]; log[inhibitor(M)] -7.09691): 58.4856 and 48.5202
HDAC1 dose-response data (relative enzyme activity), Fig. 6 + S. Fig. 10 ([5]; log[inhibitor(M)] -7.79588): 83.6845 and 79.5184
HDAC1 dose-response data (relative enzyme activity), Fig. 6 + S. Fig. 10 ([5]; log[inhibitor(M)] -8.49485): 104.354 and 102.416
HDAC1 dose-response data (relative enzyme activity), Fig. 6 + S. Fig. 10 ([5]; log[inhibitor(M)] -9.19382): 117.259 and 104.242
HDAC1 dose-response data (relative enzyme activity), Fig. 6 + S. Fig. 10 ([5]; log[inhibitor(M)] -9.89279): 112.284 and 97.8893
HDAC1 dose-response data (relative enzyme activity), Fig. 6 + S. Fig. 10 [5, 10]: 104,006* and 95,9789*
HDAC2 dose-response data (relative enzyme activity), Fig. 6 + S. Fig. 10 ([6]; log[inhibitor(M)] -7.79588): 97.4067 and 92.3774
HDAC2 dose-response data (relative enzyme activity), Fig. 6 + S. Fig. 10 [6, 10]: 106,147* and 102,092*
Ki ([6]; resynthesized peptide in solution, Cheng-Prusoff, n = 2): 18.3 ± 0.3 nM
EC50 [7]: 12.6 nM
EC50 [8]: 1.45 nM
selectivity against HDACs 1‒3 versus HDAC8 [9]: over 100 fold
